Source: patent US10723724B2, “Compounds for treating degenerative diseases of central nervous system or brain tumor, and uses thereof” (SUN YAT-SEN UNIVERSITY, priority 2016, dated 2020)

Assays:
Format in all cases: biochemical
MAPK8 (JNK1) = molecular target: T1, MAPK8 (JNK1) (Homo sapiens, UniProt P45983); experiment: Kinase screening service (Life Technologies): JNK1
T1 construct: purchased Life Technologies Corporation (kinase screening service)
Protocol: (§1) The inhibitory effect of PT109 on SGK and INK was detected by the kinase screening commercialization service of Life Technologies Corporation.
(§2) The inhibitory effect of PT109 on other kinases including SGK and JNK was detected by the Kinase Screening Service of Life Technologies Corporation (The concentration of compound 9 was 10 μM, measurements were performed in duplicates, and the value was represented by an average) to investigate the selectivity of the compound for JNK and SGK1.

MAPK9 (JNK2) = molecular target: T2, MAPK9 (JNK2) (Homo sapiens, UniProt P45984); experiment: Kinase screening service (Life Technologies): JNK2; conditions: average of duplicates
T2 construct: purchased Life Technologies Corporation (kinase screening service)
Protocol: as §1, §2

SGK (SGK1) [1] = molecular target: T3, SGK (SGK1) (Homo sapiens, UniProt O00141); experiment: Kinase screening service (Life Technologies): SGK1; conditions: SGK (SGK1)
T3 construct: IC50; other: SGK (SGK1); other: 10 μM, average of duplicates; SGK (SGK1)
Protocol: as §1, §2

SGK (SGK1) [2] = experiment: Kinase screening service (Life Technologies): SGK1; conditions: SGK1 versus SGK2 and SGK3
Protocol: as §1, §2

AKT1 (PKB alpha) = molecular target: T4, AKT1 (PKB alpha) (Homo sapiens, UniProt P31749); experiment: Kinase screening service: AKT1; conditions: average of duplicates
T4 construct: purchased Life Technologies Corporation (Kinase Screening Service)
Protocol: as §2

AURKC (Aurora C) = molecular target: T5, AURKC (Aurora C) (Homo sapiens, UniProt Q9UQB9); experiment: Kinase screening service: AURKC; conditions: average of duplicates
T5 construct: purchased Life Technologies Corporation (Kinase Screening Service)
Protocol: as §2

CDK5/p35 = molecular target: T6, CDK5/p35 (Homo sapiens, UniProt Q00535); experiment: Kinase screening service: CDK5/p35; conditions: average of duplicates
T6 construct: purchased Life Technologies Corporation (Kinase Screening Service)
Protocol: as §2

CSNK1A1 (CK1 alpha 1) = molecular target: T7, CSNK1A1 (CK1 alpha 1) (Homo sapiens, UniProt P48729); experiment: Kinase screening service: CSNK1A1; conditions: average of duplicates
T7 construct: purchased Life Technologies Corporation (Kinase Screening Service)
Protocol: as §2

CSNK1E (CK1 epsilon) = molecular target: T8, CSNK1E (CK1 epsilon) (Homo sapiens, UniProt P49674); experiment: Kinase screening service: CSNK1E; conditions: average of duplicates
T8 construct: purchased Life Technologies Corporation (Kinase Screening Service)
Protocol: as §2

HCK = molecular target: T9, HCK (Homo sapiens, UniProt P08631); experiment: Kinase screening service: HCK; conditions: average of duplicates
T9 construct: purchased Life Technologies Corporation (Kinase Screening Service)
Protocol: as §2

HIPK1 (Myak) = molecular target: T10, HIPK1 (Myak) (Homo sapiens, UniProt Q86Z02); experiment: Kinase screening service: HIPK1; conditions: average of duplicates
T10 construct: purchased Life Technologies Corporation (Kinase Screening Service)
Protocol: as §2

MST1R (RON) = molecular target: T11, MST1R (RON) (Homo sapiens, UniProt Q04912); experiment: Kinase screening service: MST1R; conditions: average of duplicates
T11 construct: purchased Life Technologies Corporation (Kinase Screening Service)
Protocol: as §2

NEK6 = molecular target: T12, NEK6 (Homo sapiens, UniProt Q9HC98); experiment: Kinase screening service: NEK6; conditions: average of duplicates
T12 construct: purchased Life Technologies Corporation (Kinase Screening Service)
Protocol: as §2

NTRK3 (TRKC) = molecular target: T13, NTRK3 (TRKC) (Homo sapiens, UniProt Q16288); experiment: Kinase screening service: NTRK3; conditions: average of duplicates
T13 construct: purchased Life Technologies Corporation (Kinase Screening Service)
Protocol: as §2

PAK6 = molecular target: T14, PAK6 (Homo sapiens, UniProt Q9NQU5); experiment: Kinase screening service: PAK6; conditions: average of duplicates
T14 construct: purchased Life Technologies Corporation (Kinase Screening Service)
Protocol: as §2

PDGFRB (PDGFR beta) = molecular target: T15, PDGFRB (PDGFR beta) (Homo sapiens, UniProt P09619); experiment: Kinase screening service: PDGFRB; conditions: average of duplicates
T15 construct: purchased Life Technologies Corporation (Kinase Screening Service)
Protocol: as §2

PRKCA (PKC alpha) = molecular target: T16, PRKCA (PKC alpha) (Homo sapiens, UniProt P17252); experiment: Kinase screening service: PRKCA; conditions: average of duplicates
T16 construct: purchased Life Technologies Corporation (Kinase Screening Service)
Protocol: as §2

PTK2B (FAK2) = molecular target: T17, PTK2B (FAK2) (Homo sapiens, UniProt Q14289); experiment: Kinase screening service: PTK2B; conditions: average of duplicates
T17 construct: purchased Life Technologies Corporation (Kinase Screening Service)
Protocol: as §2

RPS6KA4 (MSK2) = molecular target: T18, RPS6KA4 (MSK2) (Homo sapiens, UniProt O75676); experiment: Kinase screening service: RPS6KA4; conditions: average of duplicates
T18 construct: purchased Life Technologies Corporation (Kinase Screening Service)
Protocol: as §2

PIK3C3 (hVPS34) = molecular target: T19, PIK3C3 (hVPS34) (Homo sapiens, UniProt Q8NEB9); experiment: Kinase screening service: PIK3C3; conditions: average of duplicates
T19 construct: purchased Life Technologies Corporation (Kinase Screening Service)
Protocol: as §2

[3] = molecular target: T20, PIK3CA/PIK3R1 (p110 alpha/p85 alpha) (Homo sapiens, UniProt P42336); experiment: Kinase screening service: PIK3CA/PIK3R1; conditions: average of duplicates
T20 construct: purchased Life Technologies Corporation (Kinase Screening Service)
Protocol: as §2

[4] = molecular target: T21, PIK3CD/PIK3R1 (p110 delta/p85 alpha) (Homo sapiens, UniProt O00329); experiment: Kinase screening service: PIK3CD/PIK3R1; conditions: average of duplicates
T21 construct: purchased Life Technologies Corporation (Kinase Screening Service)
Protocol: as §2

MAP3K2 (MEKK2) = molecular target: T22, MAP3K2 (MEKK2) (Homo sapiens, UniProt Q9Y2U5); experiment: Kinase screening service: MAP3K2; conditions: average of duplicates
T22 construct: purchased Life Technologies Corporation (Kinase Screening Service)
Protocol: as §2

MAP3K5 (ASK1) = molecular target: T23, MAP3K5 (ASK1) (Homo sapiens, UniProt Q99683); experiment: Kinase screening service: MAP3K5; conditions: average of duplicates
T23 construct: purchased Life Technologies Corporation (Kinase Screening Service)
Protocol: as §2

T1 sequence (P45983 whole entry): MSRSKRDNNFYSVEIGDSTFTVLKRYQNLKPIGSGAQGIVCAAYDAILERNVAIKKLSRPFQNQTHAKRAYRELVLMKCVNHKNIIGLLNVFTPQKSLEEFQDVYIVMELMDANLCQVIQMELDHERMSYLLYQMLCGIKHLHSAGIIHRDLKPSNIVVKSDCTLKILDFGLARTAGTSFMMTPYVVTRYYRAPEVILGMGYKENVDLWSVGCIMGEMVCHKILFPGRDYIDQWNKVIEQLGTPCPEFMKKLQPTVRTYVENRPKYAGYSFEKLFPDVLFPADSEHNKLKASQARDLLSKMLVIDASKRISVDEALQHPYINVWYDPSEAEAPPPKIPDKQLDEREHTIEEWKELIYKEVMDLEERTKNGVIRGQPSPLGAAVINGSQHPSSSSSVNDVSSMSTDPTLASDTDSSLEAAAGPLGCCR
T3 sequence (O00141 whole entry S422D, form open): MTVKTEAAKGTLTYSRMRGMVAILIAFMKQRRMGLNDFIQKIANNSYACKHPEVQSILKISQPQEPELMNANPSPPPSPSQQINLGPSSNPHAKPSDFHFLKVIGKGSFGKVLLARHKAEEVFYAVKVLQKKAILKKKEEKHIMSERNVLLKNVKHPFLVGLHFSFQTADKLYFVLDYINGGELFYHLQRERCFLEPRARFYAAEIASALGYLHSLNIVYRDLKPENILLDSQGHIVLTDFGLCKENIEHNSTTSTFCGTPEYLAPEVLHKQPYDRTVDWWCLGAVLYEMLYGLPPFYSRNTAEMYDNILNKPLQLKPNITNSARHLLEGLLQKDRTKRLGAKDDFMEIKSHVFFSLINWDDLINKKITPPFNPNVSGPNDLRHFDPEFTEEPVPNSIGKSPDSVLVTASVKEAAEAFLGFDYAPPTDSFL
T23 sequence (Q99683 whole entry): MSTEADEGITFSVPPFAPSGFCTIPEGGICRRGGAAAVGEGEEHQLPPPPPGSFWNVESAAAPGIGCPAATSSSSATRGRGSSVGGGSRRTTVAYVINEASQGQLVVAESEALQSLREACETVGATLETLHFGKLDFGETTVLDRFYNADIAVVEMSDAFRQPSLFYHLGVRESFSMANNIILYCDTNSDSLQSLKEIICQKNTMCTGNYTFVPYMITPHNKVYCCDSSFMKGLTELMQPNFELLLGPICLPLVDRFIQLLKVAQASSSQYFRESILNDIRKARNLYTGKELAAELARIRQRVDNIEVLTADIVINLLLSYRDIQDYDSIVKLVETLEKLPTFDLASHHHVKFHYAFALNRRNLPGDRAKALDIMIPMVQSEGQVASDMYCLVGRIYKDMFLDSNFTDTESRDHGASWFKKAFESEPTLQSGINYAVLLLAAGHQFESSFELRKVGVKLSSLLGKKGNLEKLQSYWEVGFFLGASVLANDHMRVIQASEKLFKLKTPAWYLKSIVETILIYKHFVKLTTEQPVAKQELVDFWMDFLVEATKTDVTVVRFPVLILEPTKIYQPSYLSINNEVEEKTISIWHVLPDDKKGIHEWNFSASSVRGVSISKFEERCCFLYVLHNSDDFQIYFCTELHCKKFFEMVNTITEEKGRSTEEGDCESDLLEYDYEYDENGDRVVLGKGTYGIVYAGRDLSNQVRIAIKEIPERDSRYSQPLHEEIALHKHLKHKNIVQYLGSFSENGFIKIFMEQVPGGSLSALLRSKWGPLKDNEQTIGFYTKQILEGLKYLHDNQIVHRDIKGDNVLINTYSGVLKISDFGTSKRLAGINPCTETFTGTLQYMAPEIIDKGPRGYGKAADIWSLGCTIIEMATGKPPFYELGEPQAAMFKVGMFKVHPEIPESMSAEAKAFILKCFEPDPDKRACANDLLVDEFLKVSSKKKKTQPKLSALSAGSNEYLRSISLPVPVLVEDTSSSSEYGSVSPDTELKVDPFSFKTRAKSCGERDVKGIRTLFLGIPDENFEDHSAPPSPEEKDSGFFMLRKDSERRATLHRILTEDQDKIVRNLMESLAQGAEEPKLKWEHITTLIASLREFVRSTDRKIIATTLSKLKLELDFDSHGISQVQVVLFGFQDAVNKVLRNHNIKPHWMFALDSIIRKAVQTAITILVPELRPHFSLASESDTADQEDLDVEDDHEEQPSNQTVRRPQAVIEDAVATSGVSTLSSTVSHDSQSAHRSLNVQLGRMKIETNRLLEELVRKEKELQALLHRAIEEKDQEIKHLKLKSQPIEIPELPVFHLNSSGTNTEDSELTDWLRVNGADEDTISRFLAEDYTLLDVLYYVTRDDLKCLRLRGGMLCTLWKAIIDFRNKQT
T2 sequence (P45984 whole entry): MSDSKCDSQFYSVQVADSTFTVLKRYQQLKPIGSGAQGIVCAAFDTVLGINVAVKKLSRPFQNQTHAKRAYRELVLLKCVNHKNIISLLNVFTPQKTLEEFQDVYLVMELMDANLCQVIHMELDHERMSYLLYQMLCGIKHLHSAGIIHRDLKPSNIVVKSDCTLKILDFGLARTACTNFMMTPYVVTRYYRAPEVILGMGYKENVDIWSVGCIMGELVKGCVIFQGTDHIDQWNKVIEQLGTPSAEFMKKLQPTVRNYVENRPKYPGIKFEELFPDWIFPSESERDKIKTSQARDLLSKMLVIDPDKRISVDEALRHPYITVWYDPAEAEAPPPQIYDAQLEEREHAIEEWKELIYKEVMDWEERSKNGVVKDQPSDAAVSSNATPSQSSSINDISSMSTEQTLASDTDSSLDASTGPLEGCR
T17 sequence (Q14289 whole entry): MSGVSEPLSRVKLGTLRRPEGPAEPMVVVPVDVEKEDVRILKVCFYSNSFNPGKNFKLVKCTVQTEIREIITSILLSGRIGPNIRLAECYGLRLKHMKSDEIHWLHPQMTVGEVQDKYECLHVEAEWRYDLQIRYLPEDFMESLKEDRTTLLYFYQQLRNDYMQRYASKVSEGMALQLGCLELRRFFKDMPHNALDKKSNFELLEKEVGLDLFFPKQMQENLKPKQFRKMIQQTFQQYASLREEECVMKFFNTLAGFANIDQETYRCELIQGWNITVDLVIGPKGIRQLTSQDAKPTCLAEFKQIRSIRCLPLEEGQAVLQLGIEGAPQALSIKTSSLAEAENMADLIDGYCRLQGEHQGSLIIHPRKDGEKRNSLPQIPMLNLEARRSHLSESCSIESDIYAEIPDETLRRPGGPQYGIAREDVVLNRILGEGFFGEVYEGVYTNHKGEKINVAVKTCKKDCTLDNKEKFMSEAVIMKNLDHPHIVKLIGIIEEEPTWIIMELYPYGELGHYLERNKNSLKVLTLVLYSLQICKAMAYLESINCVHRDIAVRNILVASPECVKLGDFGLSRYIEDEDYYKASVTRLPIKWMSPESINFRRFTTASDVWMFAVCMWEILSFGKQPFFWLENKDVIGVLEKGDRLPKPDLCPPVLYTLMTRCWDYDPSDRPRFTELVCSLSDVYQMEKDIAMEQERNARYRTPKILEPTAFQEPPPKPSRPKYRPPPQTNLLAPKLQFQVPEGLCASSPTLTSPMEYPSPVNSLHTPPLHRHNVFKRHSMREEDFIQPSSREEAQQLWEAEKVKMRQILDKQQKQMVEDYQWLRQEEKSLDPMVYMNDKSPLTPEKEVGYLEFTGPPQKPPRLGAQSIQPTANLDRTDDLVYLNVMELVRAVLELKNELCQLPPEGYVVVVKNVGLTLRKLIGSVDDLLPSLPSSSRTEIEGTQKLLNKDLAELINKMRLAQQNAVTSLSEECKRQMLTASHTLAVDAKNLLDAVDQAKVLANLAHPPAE
T13 sequence (Q16288 32-839): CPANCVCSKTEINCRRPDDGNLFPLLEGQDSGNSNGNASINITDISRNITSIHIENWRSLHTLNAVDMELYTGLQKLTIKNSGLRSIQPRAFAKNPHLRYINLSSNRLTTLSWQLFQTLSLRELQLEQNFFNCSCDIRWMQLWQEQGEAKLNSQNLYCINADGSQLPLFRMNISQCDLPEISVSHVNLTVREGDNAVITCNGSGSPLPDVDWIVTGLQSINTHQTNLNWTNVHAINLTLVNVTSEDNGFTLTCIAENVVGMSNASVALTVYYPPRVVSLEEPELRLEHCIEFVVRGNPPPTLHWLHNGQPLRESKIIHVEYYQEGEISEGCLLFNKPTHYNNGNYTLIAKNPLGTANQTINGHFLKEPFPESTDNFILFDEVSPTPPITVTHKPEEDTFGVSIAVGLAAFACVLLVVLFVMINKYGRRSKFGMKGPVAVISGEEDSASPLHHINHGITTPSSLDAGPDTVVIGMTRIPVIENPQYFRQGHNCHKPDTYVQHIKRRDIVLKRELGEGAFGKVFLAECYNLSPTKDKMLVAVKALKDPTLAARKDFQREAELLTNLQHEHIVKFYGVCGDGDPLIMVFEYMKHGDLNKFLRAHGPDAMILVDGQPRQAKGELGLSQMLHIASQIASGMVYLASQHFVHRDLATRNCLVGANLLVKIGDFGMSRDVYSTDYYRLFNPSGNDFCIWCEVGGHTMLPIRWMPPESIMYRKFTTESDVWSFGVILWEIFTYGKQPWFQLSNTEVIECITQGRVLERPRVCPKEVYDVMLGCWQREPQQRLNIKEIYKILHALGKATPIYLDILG
T7 sequence (P48729 whole entry): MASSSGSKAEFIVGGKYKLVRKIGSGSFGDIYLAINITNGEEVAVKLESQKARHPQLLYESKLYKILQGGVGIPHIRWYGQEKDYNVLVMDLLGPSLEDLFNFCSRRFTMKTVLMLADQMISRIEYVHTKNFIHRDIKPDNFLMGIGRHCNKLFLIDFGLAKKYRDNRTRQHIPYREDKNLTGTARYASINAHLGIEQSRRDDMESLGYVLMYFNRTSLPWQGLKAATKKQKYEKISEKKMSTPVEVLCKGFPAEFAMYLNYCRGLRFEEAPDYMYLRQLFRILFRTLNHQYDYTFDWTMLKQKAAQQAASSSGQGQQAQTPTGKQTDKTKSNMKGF

IC50 (MAPK8 (JNK1)): 143 nM
inhibition at 10 µM (MAPK8 (JNK1); 10 μM, average of duplicates): 104%
inhibition at 10 µM (MAPK9 (JNK2)): 91%
% Inhibition (SGK (SGK1) [1]; 10 μM, average of duplicates): 91%
IC50 (SGK (SGK1) [1]): 1340 nM
specificity for SGK1 (SGK (SGK1) [2]): better specificity for SGK1
inhibition at 10 µM (AKT1 (PKB alpha)): 22%
inhibition at 10 µM (AURKC (Aurora C)): 5%
inhibition at 10 µM (CDK5/p35): 26%
inhibition at 10 µM (CSNK1A1 (CK1 alpha 1)): 3%
inhibition at 10 µM (CSNK1E (CK1 epsilon)): 10%
inhibition at 10 µM (HCK): 9%
inhibition at 10 µM (HIPK1 (Myak)): 0%
inhibition at 10 µM (MST1R (RON)): 35%
inhibition at 10 µM (NEK6): 3%
inhibition at 10 µM (NTRK3 (TRKC)): 28%
inhibition at 10 µM (PAK6): -16%
inhibition at 10 µM (PDGFRB (PDGFR beta)): 7%
inhibition at 10 µM (PRKCA (PKC alpha)): 25%
inhibition at 10 µM (PTK2B (FAK2)): 8%
inhibition at 10 µM (RPS6KA4 (MSK2)): 28%
inhibition at 10 µM (PIK3C3 (hVPS34)): 11%
inhibition at 10 µM [3]: 56%
inhibition at 10 µM [4]: 48%
inhibition at 10 µM (MAP3K2 (MEKK2)): 10%
inhibition at 10 µM (MAP3K5 (ASK1)): 9%
SMILES: O=C(CCCCC1CCSS1)NC1CCC(Nc2cccc3cnccc23)CC1 (centres unmarked) [PT109, 5-(1,2-dithiolan-3-yl)-N-(4-(isoquinolin-5-ylamino)cyclohexyl) pentanamide]
